Experimental data from PMC6661780, “Design, synthesis, antiviral bioactivities and interaction mechanisms of penta-1,4-diene-3-one oxime ether derivatives containing a quinazolin-4(3H)-one scaffold” (BMC Chemistry, 2019).

Target: T1, TMV CP (TMV coat protein) (Tobacco mosaic virus (vulgare), UniProt P69687)
T1 construct: NT-647 dye labelled for MST
Experiment: microscale thermophoresis (Monolith NT.[…], NT-647-labelled protein)
Assay type: binding

T1 sequence (P69687 2-159 limits assumed): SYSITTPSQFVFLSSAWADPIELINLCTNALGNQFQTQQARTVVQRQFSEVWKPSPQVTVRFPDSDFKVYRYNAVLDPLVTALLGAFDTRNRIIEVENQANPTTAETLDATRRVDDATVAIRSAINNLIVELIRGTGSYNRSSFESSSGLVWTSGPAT

Q: `O=c1c2ccccc2ncn1CO/N=C(\C=C\c1ccccn1)/C=C/c1ccccc1OCc1ccc(Cl)cc1Cl` [8k] was tested. Which Kd did it give?
A: 970 ± 690 nM
